Measurements from patent US12508431B2, “Method and apparatus for electrical current therapy of biological tissue and insulin release therefrom” (ROCKY MOUNTAIN BIPHASIC, INC., priority 2019, dated 2025).

Assays:
INS-1 cells [1] = type: cell-based, rat; settings: FIG. 5A/5B; for ACBPS-induced insulin release: ACBPS 10 Hz, 25 V; for basal insulin release: mock stimulation
Method: A rat insulinoma cell line INS-1 was obtained and were grown in 6-well polystyrene culture plates as attached monolayers in RPMI1640 culture medium supplemented with 10% fetal bovine serum, 10 mM HEPES, 1 mM sodium pyruvate, 2 mM L-glutamine, 0.05 mM 2-mercaptoethanol, 100 IU/mL penicillin and 100 μg/mL streptomycin (i.e., complete medium). Cells were maintained and experiments were conducted in a humidified atmosphere of 5% CO2 in air at 37° C. Select studies were carried out in glucose-free RPMI1640 culture medium supplemented with reagents as described above. In these experiments, the regular medium was exchanged for glucose-free medium 16 hours prior to the electrical stimulation experiment.
ACBPS was applied to cells using a C-Pace EP cell culture stimulator in combination with a C-dish electrode array for a 6-well plate. Control cells were mock stimulated using an identical 6-well C-dish electrode array that was not connected to the stimulator. Unless otherwise stated, the biphasic stimulation parameters were anodal followed by cathodal at 10 Hz (frequency), 5 milliseconds (ms) (total pulse duration), and 25 V (pulse magnitude).
Insulin release from INS-1 cells into the culture medium was determined by ELISA (Rat Insulin ELISA Kit) per the manufacturer's instructions. For these studies, cells were grown to approximately 95% confluency in 6-well plates containing 3 mL complete medium/well. 16 hours before stimulation, the medium was replaced with 3 mL fresh complete medium. Immediately prior to stimulation, the medium was aspirated, the cells were washed twice with 2 mL phosphate buffered saline (PBS), and then 3 mL fresh complete medium was added to each well. Cells were subjected to ACBPS (10 Hz, (2.5 ms)/(2.5 ms) pulse duration (i.e. anodal duration/cathodal duration), 10-25 V magnitude) or mock stimulation for the indicated times. At the end of the stimulation periods, a 0.5 mL sample of medium was removed from each well and stored frozen at −70° C. for later analysis. In some studies, cells were grown for 16 hours in glucose-free medium prior to stimulation. To examine a role for electrolysis products in promoting insulin release, an additional series of experiments were conducted that involved the application of ACBPS (10 Hz, (2.5 ms)/(2.5 ms) pulse duration, 25 V magnitude) or no stimulation (mock) for 30 min to 6-well plates containing only complete medium (3 mL per well) (i.e., no cells). At the end of the stimulation period, the “pre-stimulated” medium was transferred to cells that had been washed twice with PBS (as above). The cells were allowed to incubate with the pre-stimulated medium for 30 min, after which a 0.5 mL sample of medium was removed from each well and stored frozen at −70° C. for latter analysis. The insulin concentration of the culture medium was measured by colorimetric ELISA using 2 μL of the culture medium as described by the manufacturer. Culture medium samples and insulin standards were allowed to bind for 16 hours at 4° C.

INS-1 cells [2] = assay: Transmembrane potential assay by DiBAC4(3) staining; type: cell-based, rat; settings: 30 min in staining buffer with 5 μM DiBAC4(3), valinomycin 100 nM, gramicidin 100 nM, KCl 140 mM, FIG. 8A
Method: The transmembrane potential (TMP) was estimated using DiBAC4(3) staining as previously described. For these studies, INS-1 cells were grown to 95% confluency in 6-well plates. The medium was aspirated, replaced with 3 mL fresh complete medium per well, and subjected to mock stimulation or ACBPS (10 Hz, (2.5 ms)/(2.5 ms) pulse duration, 25 V magnitude) for 30 min. Immediately following the stimulation period, the medium was aspirated from each well and replaced with 2 mL per well staining buffer (20 mM HEPES, 120 mM NaCl, 2 mM KCl, 2 mM CaCl2), 1 mM MgCl2, and 5 mM glucose [pH 7.4]) containing 5 μM DiBAC4(3) with DMSO (mock and ACBPS), valinomycin (100 nM), gramicidin (100 nM) or KCl (140 mM). The cells were allowed to incubate in staining buffer at 37° C. for 30 min. Thereafter, the fluorescence intensity of DiBAC4(3) stained INS-1 cells (Ex 490 nm/Em 516 nm) was measured using a BioTek Synergy H1 plate reader programmed to acquire 49 (7×7) individual measurements per well.

Compound	ACBPS-induced insulin release (INS-1 cells [1])	basal insulin release (INS-1 cells [1])	DiBAC4(3) fluorescence (INS-1 cells [2])
CC[C@@H]1/C=C/C=C/C[C@H](C)[C@H](O)[C@](C)(O)C(=O)[C@H](C)[C@@H](O)[C@H](C)C(=O)[C@H](C)[C@@H](O)[C@H](C)/C=C/C(=O)O[C@H]2[C@@H](C)[C@@H](CC1)O[C@@]1(CC[C@@H](C)[C@@H](C[C@H](C)O)O1)[C@@H]2C [oligomycin A]	inhibited	inhibited	–
CC(C)[C@@H]1NC(=O)[C@H](C)OC(=O)[C@@H](C(C)C)NC(=O)[C@@H](C(C)C)OC(=O)[C@H](C(C)C)NC(=O)[C@H](C)OC(=O)[C@@H](C(C)C)NC(=O)[C@@H](C(C)C)OC(=O)[C@H](C(C)C)NC(=O)[C@H](C)OC(=O)[C@@H](C(C)C)NC(=O)[C@@H](C(C)C)OC1=O [valinomycin]	–	–	decrease
gramicidin A	–	–	increased
[Cl-].[K+] [KCl]	–	–	increased
Antimycin A	inhibited	inhibited	–
COc1ccc(CCN(C)CCCC(C#N)(c2ccc(OC)c(OC)c2)C(C)C)cc1OC (centres unmarked) [verapamil]	–	inhibited	–
